This is an account of results in ChEMBL document CHEMBL1127282, “Structure-activity relationships in the amino acid sidechain of L-692,429” (Bioorg Med Chem Lett, 1994).

A short description of data set [1]: pKa value was determined. The data set is classed as physicochemical.
The species entered for a further data set is Rattus norvegicus. Description: In vitro effective dose was measured for the growth hormone release in rat pituitary cells; Inactive at 20 ug/mL. It counts as functional, cell-based. Particulars: Pituitary gland cell.
Data set [2] addresses Growth hormone secretagogue receptor type 1 (Rattus norvegicus) (UniProt O08725). Briefly: In vitro effective dose was measured for the growth hormone release in rat pituitary cells. The data set is classed as functional, cell-based. As to conditions: Pituitary gland cell.

Molecules are shown by their SMILES. Calls of active or inactive are those of the source. No cut-off for these calls is given here.

Chain of Growth hormone secretagogue receptor type 1 (Rattus norvegicus) (O08725 whole entry): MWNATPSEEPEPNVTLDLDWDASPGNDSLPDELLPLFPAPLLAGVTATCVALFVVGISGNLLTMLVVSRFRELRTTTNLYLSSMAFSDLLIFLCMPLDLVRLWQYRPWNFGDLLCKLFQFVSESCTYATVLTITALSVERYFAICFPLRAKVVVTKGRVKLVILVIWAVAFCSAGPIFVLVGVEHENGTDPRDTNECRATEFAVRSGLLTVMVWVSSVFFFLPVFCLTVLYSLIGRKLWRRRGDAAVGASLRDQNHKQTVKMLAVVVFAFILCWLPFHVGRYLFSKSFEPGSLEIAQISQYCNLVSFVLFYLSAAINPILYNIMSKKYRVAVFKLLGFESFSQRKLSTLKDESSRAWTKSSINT

As to `CC(C)(N)CC(=O)N[C@@H]1CCc2ccccc2N(Cc2ccc(-c3ccccc3-c3nnn[nH]3)cc2)C1=O`, the pKa in data set [1] was 9.3. In the case of `CC(=O)NC(C)(C)CC(=O)N[C@@H]1CCc2ccccc2N(Cc2ccc(-c3ccccc3-c3nn[nH]n3)cc2)C1=O`, in the data set listed under Rattus norvegicus, the ED50 entry is “inactive”. As to `CC(C)(N)C(=O)N[C@@H]1CCc2ccccc2N(Cc2ccc(-c3ccccc3-c3nn[nH]n3)cc2)C1=O`, the pKa in data set [1] worked out at 7.9. For the same molecule, the ED50 in data set [2] amounted to 0.03 µM. Take `C[C@@H](O)CNC(C)(C)CC(=O)N[C@@H]1CCc2ccccc2N(Cc2ccc(-c3ccccc3-c3nnn[nH]3)cc2)C1=O` [L-692585]: the pKa in data set [1] was 9.1.

On to `CC(C)(CN)C(=O)N[C@@H]1CCc2ccccc2N(Cc2ccc(-c3ccccc3-c3nn[nH]n3)cc2)C1=O`, for which, in data set [2], the ED50 turned out to be 3 µM. Consider `N[C@@H]1CCc2ccccc2N(Cc2ccc(-c3ccccc3-c3nn[nH]n3)cc2)C1=O`, for which the ED50 in data set [2] came to 9 µM.

In data set [2], `CC(C)(N)CCC(=O)N[C@@H]1CCc2ccccc2N(Cc2ccc(-c3ccccc3-c3nn[nH]n3)cc2)C1=O` yielded an ED50 of 3 µM. Same read-out and setting: the value for `NCCC(=O)N[C@@H]1CCc2ccccc2N(Cc2ccc(-c3ccccc3-c3nn[nH]n3)cc2)C1=O` was 2 µM; that for `C[C@@H](N)C(=O)N[C@@H]1CCc2ccccc2N(Cc2ccc(-c3ccccc3-c3nn[nH]n3)cc2)C1=O` (stereo in doubt; 11) was 1.4 µM.

As to `CC(C)(CC(=O)N[C@@H]1CCc2ccccc2N(Cc2ccc(-c3ccccc3-c3nn[nH]n3)cc2)C1=O)NCCO`, in data set [2], the ED50 amounted to 30 µM. As to `CC(=O)N[C@@H]1CCc2ccccc2N(Cc2ccc(-c3ccccc3-c3nn[nH]n3)cc2)C1=O`, in the data set listed under Rattus norvegicus, the ED50 result is “inactive”. `C[C@@H](O)CNC(C)(C)CC(=O)N[C@@H]1CCc2ccccc2N(Cc2ccc(-c3ccccc3-c3nn[nH]n3)cc2)C1=O`: the ED50 in data set [2] stood at 3 µM.

Turning to `CC(C)(N)CC(=O)N[C@@H]1CCc2ccccc2N(Cc2ccc(-c3ccccc3-c3nn[nH]n3)cc2)C1=O`, in data set [2], the ED50 was 0.06 µM.

As to `CC(C)(C)CC(=O)N[C@@H]1CCc2ccccc2N(Cc2ccc(-c3ccccc3-c3nn[nH]n3)cc2)C1=O`, the ED50 entry in the data set filed under Rattus norvegicus was “inactive”.

Regarding `CC[C@@H](N)C(=O)N[C@@H]1CCc2ccccc2N(Cc2ccc(-c3ccccc3-c3nn[nH]n3)cc2)C1=O`, the ED50 in data set [2] stood at 0.3 µM. Same read-out and setting: the value for `CC(C)(CC(=O)N[C@@H]1CCc2ccccc2N(Cc2ccc(-c3ccccc3-c3nn[nH]n3)cc2)C1=O)NCCN` was 230 µM; that for `NCC(=O)N[C@@H]1CCc2ccccc2N(Cc2ccc(-c3ccccc3-c3nn[nH]n3)cc2)C1=O` was 9 µM; that for `CC(C)CNC(C)(C)CC(=O)N[C@@H]1CCc2ccccc2N(Cc2ccc(-c3ccccc3-c3nn[nH]n3)cc2)C1=O` was 85 µM. Same read-out and setting: the value for `C[C@H](O)CNC(C)(C)CC(=O)N[C@@H]1CCc2ccccc2N(Cc2ccc(-c3ccccc3-c3nn[nH]n3)cc2)C1=O` was 7 µM; that for `CC(C)(CC(=O)N[C@@H]1CCc2ccccc2N(Cc2ccc(-c3ccccc3-c3nn[nH]n3)cc2)C1=O)NCc1ccccc1` was 65 µM; that for `C[C@@H](N)C(=O)N[C@@H]1CCc2ccccc2N(Cc2ccc(-c3ccccc3-c3nn[nH]n3)cc2)C1=O` (stereo in doubt; 12) was 0.1 µM.

Turning to `CC(C)(CC(=O)N[C@@H]1CCc2ccccc2N(Cc2ccc(-c3ccccc3-c3nn[nH]n3)cc2)C1=O)NC(=O)OC(C)(C)C`, in the data set filed under Rattus norvegicus, the ED50 result is “inactive”.

For the molecule `CCCNC(C)(C)CC(=O)N[C@@H]1CCc2ccccc2N(Cc2ccc(-c3ccccc3-c3nn[nH]n3)cc2)C1=O`, in data set [2], the ED50 is 50 µM. As for `N[C@H](Cc1ccccc1)C(=O)N[C@@H]1CCc2ccccc2N(Cc2ccc(-c3ccccc3-c3nn[nH]n3)cc2)C1=O`, in data set [2], the ED50 came out at 2 µM.
